Target: ROCK2 (Homo sapiens, UniProt O75116)
Assay: ROCK assay: phosphorylation of FITC peptide substrate, LABCHIP 3000 mobility shift
Format: biochemical
Details: 5 μM ATP, 1.5 μM peptide substrate; read-out: ROCK2 Activity (ROCK IC50 range)
Protocol: The effectiveness of compounds of the present invention as ROCK inhibitors can be determined in a 30 μL assay containing 20 mM HEPES, pH 7.5, 20 mM MgCl2, 0.015% Brij-35, 4 mM DTT, 5 μM ATP and 1.5 μM peptide substrate (FITC-AHA-AKRRRLSSLRA-OH). Compounds were dissolved in DMSO so that the final concentration of DMSO was <2%, and the reaction was initiated with Rho kinase variants. After incubation, the reaction was terminated by the addition of EDTA and the phosphorylated and non-phosphorylated peptides separated using a LABCHIP® 3000 Reader (Caliper Life Sciences). […] Compounds were tested in dose-response format, and the inhibition of kinase activity was calculated at each concentration of compound. The inhibition data were fit using a curve-fitting program to determine the IC50; i.e., the concentration of compound required to inhibit 50% of kinase activity.
Representative Examples were tested in the ROCK assay described above and found having ROCK inhibitory activity.

Sequence of ROCK2 (O75116 whole entry, species assumed): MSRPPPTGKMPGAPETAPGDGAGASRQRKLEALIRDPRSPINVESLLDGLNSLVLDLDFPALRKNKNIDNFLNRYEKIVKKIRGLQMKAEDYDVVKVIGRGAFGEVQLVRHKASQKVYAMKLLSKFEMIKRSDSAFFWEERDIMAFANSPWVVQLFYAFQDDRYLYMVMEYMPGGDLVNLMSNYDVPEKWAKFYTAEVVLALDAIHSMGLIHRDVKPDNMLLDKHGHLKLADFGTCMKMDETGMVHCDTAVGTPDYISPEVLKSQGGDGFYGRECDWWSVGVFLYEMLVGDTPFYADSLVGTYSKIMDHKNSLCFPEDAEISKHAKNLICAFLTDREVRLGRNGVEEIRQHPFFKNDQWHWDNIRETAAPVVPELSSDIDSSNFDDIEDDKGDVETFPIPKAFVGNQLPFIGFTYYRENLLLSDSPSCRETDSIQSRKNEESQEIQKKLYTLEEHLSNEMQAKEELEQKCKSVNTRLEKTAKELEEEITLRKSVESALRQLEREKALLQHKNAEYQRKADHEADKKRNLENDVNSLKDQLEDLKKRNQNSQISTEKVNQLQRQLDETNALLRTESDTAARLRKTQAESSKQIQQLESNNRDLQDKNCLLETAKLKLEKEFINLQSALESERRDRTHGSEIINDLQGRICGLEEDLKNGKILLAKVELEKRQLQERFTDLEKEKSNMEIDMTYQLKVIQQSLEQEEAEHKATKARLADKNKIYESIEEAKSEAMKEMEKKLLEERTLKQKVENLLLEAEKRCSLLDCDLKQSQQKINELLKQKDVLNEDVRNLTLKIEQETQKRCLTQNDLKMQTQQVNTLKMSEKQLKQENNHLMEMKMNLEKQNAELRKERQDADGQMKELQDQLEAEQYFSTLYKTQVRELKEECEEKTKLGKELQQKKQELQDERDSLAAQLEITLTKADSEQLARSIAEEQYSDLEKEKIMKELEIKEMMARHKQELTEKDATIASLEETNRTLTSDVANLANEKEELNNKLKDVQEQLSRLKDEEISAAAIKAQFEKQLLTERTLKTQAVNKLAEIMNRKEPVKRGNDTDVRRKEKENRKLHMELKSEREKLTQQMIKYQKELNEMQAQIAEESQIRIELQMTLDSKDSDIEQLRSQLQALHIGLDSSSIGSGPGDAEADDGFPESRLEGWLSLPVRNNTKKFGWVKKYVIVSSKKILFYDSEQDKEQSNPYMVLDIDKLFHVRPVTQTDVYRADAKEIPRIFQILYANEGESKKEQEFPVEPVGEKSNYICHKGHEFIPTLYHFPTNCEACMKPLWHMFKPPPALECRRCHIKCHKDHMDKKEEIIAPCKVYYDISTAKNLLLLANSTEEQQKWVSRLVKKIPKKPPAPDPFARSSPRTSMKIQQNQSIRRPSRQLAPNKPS

Row | SMILES | IC50
1 | COc1cccc(-c2ccc3c(C(=O)NC4CC5(C4)CC(c4n[nH]c(=O)c6ccccc46)C5)nn(CC(C)(C)O)c3c2)n1 (stereo not shown) [Example 150, 1-(2-hydroxy-2-methylpropyl)-6-(6-methoxypyridin-2-yl)-N-((αR)-6-(4-oxo-3,4-dihydrophthalazin-1-yl)spiro[3.3]heptan-2-yl)-1H-indazole-3-carboxamide] | 2.01 to 5 nM
2 | O=C(NC1CC2(C1)CC(c1n[nH]c(=O)c3ccccc13)C2)c1cnn2ccc(N3CCOCC3)cc12 [Example 84, 5-morpholino-N-((aR)-6-(4-oxo-3,4-dihydrophthalazin-1-yl)spiro[3.3]heptan-2-yl)pyrazolo[1,5-a]pyridine-3-carboxamide] | 5.1 to 15 nM
3 | [H][C@]1(c2n[nH]c(=O)c3ccccc32)C[C@]2(C[C@@H](NC(=O)c3cc4ccc(F)cc4[nH]3)C2)C1 (stereo partly drawn) [Example 320, 6-fluoro-N-((aR)-6-(4-oxo-3,4-dihydrophthalazin-1-yl)spiro[3.3]heptan-2-yl)-1H-indole-2-carboxamide] | 5.1 to 15 nM
4 | CC(C)(O)Cn1cc(C(=O)NC2CC3(C2)CC(c2n[nH]c(=O)c4ccccc24)C3)c2cccnc21 [Example 66, 1-(2-hydroxy-2-methylpropyl)-N-((aR)-6-(4-oxo-3,4-dihydrophthalazin-1-yl)spiro[3.3]heptan-2-yl)-1H-pyrrolo[2,3-b]pyridine-3-carboxamide] | 5.1 to 15 nM
5 | CN(C)Cc1ccc2c(C(=O)NC3CC4(C3)CC(c3n[nH]c(=O)c5ccccc35)C4)cnn2c1 [Example 203, 6-((dimethylamino)methyl)-N-((aR)-6-(4-oxo-3,4-dihydrophthalazin-1-yl)spiro[3.3]heptan-2-yl)pyrazolo[1,5-a]pyridine-3-carboxamide] | 5.1 to 15 nM
6 | [H][C@]1(c2n[nH]c(=O)c3ccccc32)C[C@]2(C[C@@H](NC(=O)c3cnc4cc(OC5CCS(=O)(=O)CC5)ccn34)C2)C1 (stereo partly drawn) [Example 431, 7-((1,1-dioxidotetrahydro-2H-thiopyran-4-yl)oxy)-N-((aR)-6-(4-oxo-3,4-dihydrophthalazin-1-yl)spiro[3.3]heptan-2-yl)imidazo[1,2-a]pyridine-3-carboxamide] | 0.2 to 2 nM
7 | O=C(NC1CC2(C1)CC(c1n[nH]c(=O)c3ccccc13)C2)N1CC(CN2CCOCC2)c2ccccc21 [Example 261, 3-(morpholinomethyl)-N-((aR)-6-(4-oxo-3,4-dihydrophthalazin-1-yl)spiro[3.3]heptan-2-yl)indoline-1-carboxamide] | 15.1 to 100 nM
8 | O=C(NC1CC2(C1)CC(c1n[nH]c(=O)c3ccccc13)C2)c1cnn2cc(OCCN3CCC(F)(F)C3)ccc12 [Example 185, 6-(2-(3,3-difluoropyrrolidin-1-yl)ethoxy)-N-((aR)-6-(4-oxo-3,4-dihydrophthalazin-1-yl)spiro[3.3]heptan-2-yl)pyrazolo[1,5-a]pyridine-3-carboxamide] | 0.2 to 2 nM
9 | [H][C@]1(c2n[nH]c(=O)c3ccccc32)C[C@]2(C[C@@H](NC(=O)c3cnc4cc(OC(F)F)ccn34)C2)C1 (stereo partly drawn) [Example 406, 7-(difluoromethoxy)-N-((aR)-6-(4-oxo-3,4-dihydrophthalazin-1-yl)spiro[3.3]heptan-2-yl)imidazo[1,2-a]pyridine-3-carboxamide] | 0.2 to 2 nM
10 | O=C(NC1CC2(C1)CC(c1n[nH]c(=O)c3ccccc13)C2)C1Cc2ccccc2C1 (stereo not shown) [Example 1, N-[6-(4-oxo-3,4-dihydrophthalazin-1-yl)spiro[3.3]heptan-2-yl]-2,3-dihydro-1H-indene-2-carboxamide] | 100 to 2100 nM
11 | O=C(NC1CC2(C1)CC(c1n[nH]c(=O)c3ccccc13)C2)c1cnn2cc(OCCC(F)(F)F)ccc12 (stereo not drawn) [Example 133, N-((αR)-6-(4-oxo-3,4-dihydrophthalazin-1-yl)spiro[3.3]heptan-2-yl)-6-(3,3,3-trifluoropropoxy)pyrazolo[1,5-α]pyridine-3-carboxamide] | 0.2 to 2 nM
12 | [2H]C([2H])([2H])n1cc(-c2ccn3c(C(=O)N[C@H]4CC5(C4)C[C@H](c4n[nH]c(=O)c6ccccc64)C5)cnc3c2)cn1 (stereo partly drawn) [Example 442, 7-(1-(methyl-d3)-1H-pyrazol-4-yl)-N-((aR)-6-(4-oxo-3,4-dihydrophthalazin-1-yl)spiro[3.3]heptan-2-yl)imidazo[1,2-a]pyridine-3-carboxamide] | 0.2 to 2 nM
13 | O=C(NC1CC2(C1)CC(c1n[nH]c(=O)c3ccccc13)C2)c1cnn2c(C3CC3)c(OCc3ccccc3)ccc12 (stereo not drawn) [Example 125, 6-(benzyloxy)-7-cyclopropyl-N-((αR)-6-(4-oxo-3,4-dihydrophthalazin-1-yl)spiro[3.3]heptan-2-yl)pyrazolo[1,5-α]pyridin-3-carboxamide] | 2.01 to 5 nM
14 | CC(=O)c1ccc2c(C(=O)N[C@H]3CC4(C3)C[C@H](c3n[nH]c(=O)c5ccccc53)C4)cnn2c1 (stereo partly drawn) [Example 214, 6-acetyl-N-((aR)-6-(4-oxo-3,4-dihydrophthalazin-1-yl)spiro[3.3]heptan-2-yl)pyrazolo[1,5-a]pyridine-3-carboxamide] | 2.01 to 5 nM
15 | [H][C@]1(c2n[nH]c(=O)c3ccccc32)C[C@]2(C[C@@H](NC(=O)c3cnc4c(C(F)(F)F)cccn34)C2)C1 (stereo partly drawn) [Example 381, N-((aR)-6-(4-oxo-3,4-dihydrophthalazin-1-yl)spiro[3.3]heptan-2-yl)-8-(trifluoro-methyl)imidazo[1,2-a]pyridine-3-carboxamide] | 2.01 to 5 nM

Other lines, results leading:

Row | IC50 | SMILES
16 | 5.1 to 15 nM | [H][C@]1(c2n[nH]c(=O)c3ccccc32)C[C@]2(C[C@@H](NC(=O)c3cnc4ccccn34)C2)C1 (stereo partly drawn) [Example 318, N-((aR)-6-(4-oxo-3,4-dihydrophthalazin-1-yl)spiro[3.3]heptan-2-yl)imidazo[1,2-a]pyridine-3-carboxamide]
17 | 5.1 to 15 nM | O=C(NC1CC2(C1)CC(c1n[nH]c(=O)c3ccccc13)C2)c1ccn(C2CC2)n1 [Example 29, 1-cyclopropyl-N-[(aR)-6-(4-oxo-3,4-dihydrophthalazin-1-yl)spiro[3.3]heptan-2-yl]-1H-pyrazole-3-carboxamide]
18 | 2.01 to 5 nM | Cn1nc(C2CC2)cc1C(=O)NC1CC2(C1)CC(c1n[nH]c(=O)c3ccccc13)C2 [Example 24, 3-cyclopropyl-1-methyl-N-[(aR)-6-(4-oxo-3,4-dihydrophthalazin-1-yl)spiro[3.3]heptan-2-yl]-1H-pyrazole-5-carboxamide]
19 | 2.01 to 5 nM | [H][C@]1(c2n[nH]c(=O)c3ccccc32)C[C@]2(C[C@@H](NC(=O)c3cnc4c(Cl)c(C)ccn34)C2)C1 (stereo partly drawn) [Example 386, 8-chloro-7-methyl-N-((aR)-6-(4-oxo-3,4-dihydro-phthalazin-1-yl)spiro[3.3]heptan-2-yl)imidazo[1,2-a]pyridine-3-carboxamide]
20 | 2.01 to 5 nM | Cn1nc(C(=O)N[C@H]2CC3(C2)C[C@H](c2n[nH]c(=O)c4ccccc42)C3)c2ccccc21 (single isomer, unassigned) [Example 14]
21 | 15.1 to 100 nM | [H][C@]1(c2n[nH]c(=O)c3ccccc32)C[C@]2(C[C@@H](NC(=O)c3ccc(C)nc3O)C2)C1 (stereo partly drawn) [Example 343, 2-hydroxy-6-methyl-N-((aR)-6-(4-oxo-3,4-dihydrophthalazin-1-yl)spiro[3.3]heptan-2-yl)nicotinamide]
22 | 15.1 to 100 nM | [H][C@]1(c2n[nH]c(=O)c3ccccc32)C[C@]2(C[C@@H](NC(=O)c3ccc(N(C)C)nc3)C2)C1 (stereo partly drawn) [Example 356, 6-(dimethylamino)-N-((aR)-6-(4-oxo-3,4-dihydrophthalazin-1-yl)spiro[3.3]heptan-2-yl)nicotinamide]

Reference: patent publication US9902702B2, “Spirocycloheptanes as inhibitors of rock” (BRISTOL-MYERS SQUIBB COMPANY, priority 2014, dated 2018)
